{"source": "patent US20220125771A1", "about": "“S[…], ANALOGUES THEREOF, AND METHODS USING SAME” (priority 2019, published 2022)", "data": [{"system": "HBsAg in HepG2.2.15 cells", "assay": "HBsAg Assay: inhibition of HBsAg in HepG2.2.15 cells (CLIA immunoassay of supernatant)", "format": "cell-based, hepatitis B virus", "details": "Hepatitis B virus, HepG2.2.15, 144 h, read-out: sAg EC50, μM, HepG2.2.15 cells; supernatant collected at day 6 after exposure of compounds; final DMSO 0.5%", "protocol": "(§1) Inhibition of HBsAg was determined in HepG2.2.15 cells. Cells were maintained in culture medium containing 10% fetal calf serum, […], Glutamine, penicillin/streptomycin. Cells were seeded in 96-well collagen-coated plate at a density of 30,000 cells/well. Serially diluted compounds were added to cells next day at the final DMSO concentration of 0.5%. Cells were incubated with compounds for 2-3 days, after which medium was removed. Fresh medium containing compounds was added to cells for additional 3-4 days. At day 6 after exposure of compounds, supernatant was collected, the HBsAg immunoassay (microplate-based chemiluminescence immunoassay kits, CLIA, Autobio Diagnosics Co., Zhengzhou, China, Catalog #CL0310-2) was used to determine the level of HBsAg according to manufactory instruction. Dose-response curves were generated and the EC50 value (effective concentrations that achieved 50% inhibitory effect) were determined using XLfit software. In addition, cells were seeded at a density of 5,000 cells/well for determination of cell viability in the presence and absence of compounds by using CellTiter-Glo reagent (Promega). Tables 1-3 show EC50 values obtained by the HBsAg assay for selected compounds.", "units": {"EC50": "µM"}, "values": [{"smiles": "CC(C)(C)C1Cc2c(cc(OC(F)F)c3ncccc23)-c2[nH]c(=O)c(C(=O)O)c(O)c21", "note": "(stereo not drawn) [Example 29, 6-(tert-Butyl)-12-(difluoromethoxy)-7-hydroxy-9-oxo-5,6,9,10-tetrahydroquinolino[7,8-f]quinoline-8-carboxylic Acid]", "EC50": 0.001}, {"smiles": "COc1c(C(=O)O)c(=O)c2c(n1C)-c1cc(OC(F)F)c3ncccc3c1CC2C(C)(C)C", "note": "(stereo not drawn) [Example 46, 6-(tert-Butyl)-12-(difluoromethoxy)-9-methoxy-10-methyl-7-oxo-5,6,7,10-tetrahydroquinolino[7,8-f]quinoline-8-carboxylic Acid]", "EC50": 0.3}, {"smiles": "CC(C)(C)C1Cc2c(cc(OC(F)F)c3c2CCCN3)-c2[nH]c(=O)c(C(=O)O)c(O)c21", "note": "(stereo not drawn) [Example 9, 6-(tert-Butyl)-12-(difluoromethoxy)-7-hydroxy-9-oxo-1,2,3,4,5,6,9,10-octahydroquinolino[7,8-f]quinoline-8-carboxylic Acid]", "EC50": 0.011}, {"smiles": "COc1cccc2c1nc1n2CC(C(C)(C)C)c2c-1[nH]c(=O)c(C(=O)O)c2O", "note": "(stereo not drawn) [Example 24, 5-(tert-Butyl)-4-hydroxy-11-methoxy-2-oxo-1,2,5,6-tetrahydrobenzo[4,5]imidazo[1,2-h][1,7]naphthyridine-3-carboxylic Acid]", "EC50": 0.02}, {"smiles": "CCOc1cccc2c1cc1n2CC(C(C)(C)C)c2c-1[nH]c(=O)c(C(=O)O)c2O", "note": "(stereo not drawn) [Example 5, 5-(tert-Butyl)-11-ethoxy-4-hydroxy-2-oxo-1,2,5,6-tetrahydroindolo[1,2-h]naphthyridine-3-carboxylic Acid]", "EC50": 0.13}, {"smiles": "CC(C)(C)C1Cn2c(nc3c(OC(F)F)cccc32)-c2[nH]c(=O)c(C(=O)O)cc21", "note": "(stereo not drawn) [Example 26, 5-(tert-Butyl)-11-(difluoromethoxy)-2-oxo-1,2,5,6-tetrahydrobenzo[4,5]imidazo[1,2-h][1,7]naphthyridine-3-carboxylic Acid]", "EC50": 0.057}, {"smiles": "CC(=O)N1CCCc2c3c(cc(OC(F)F)c21)-c1[nH]c(=O)c(C(=O)O)cc1C(C(C)(C)C)C3", "note": "(stereo not drawn) [Example 31, 1-Acetyl-6-(tert-butyl)-12-(difluoromethoxy)-9-oxo-1,2,3,4,5,6,9,10-octahydroquinolino[7,8-f]quinoline-8-carboxylic Acid]", "EC50": 0.05}, {"smiles": "COc1[nH]c2c(c(=O)c1C(=O)O)C(C(C)(C)C)Cc1c-2cc(OC(F)F)c2ncccc12", "note": "(stereo not drawn) [Example 47, 6-(tert-butyl)-12-(difluoromethoxy)-9-methoxy-7-oxo-5,6,7,10-tetrahydroquinolino[7,8-f]quinoline-8-carboxylic Acid]", "EC50": 0.14}, {"smiles": "COc1nc2c(c3ccccc13)CC(C(C)(C)C)c1cc(C(=O)O)c(=O)n(C)c1-2", "note": "(stereo not drawn) [Example 43, 12-(tert-Butyl)-6-methoxy-4-methyl-3-oxo-3,4,11,12-tetrahydrobenzo[c][1,10]phenanthroline-2-carboxylic Acid]", "EC50": 0.023}]}, {"system": "HBsAg in HepG2.2.15 cells", "assay": "HBsAg Assay: inhibition of HBsAg in HepG2.2.15 cells (CLIA immunoassay of supernatant)", "format": "cell-based, hepatitis B virus", "details": "read-out: sAg EC50; HepG2.2.15 cells; supernatant collected at day 6 after exposure of compounds; final DMSO 0.5%", "protocol": "as §1", "units": {"EC50": "µM"}, "values": [{"smiles": "CC(C)(C)C1Cc2c(nc3c(OC(F)F)cccn23)-c2[nH]c(=O)c(C(=O)O)c(O)c21", "note": "(single isomer, unassigned) [Example 7, 5-(tert-Butyl)-11-(difluoromethoxy)-4-hydroxy-2-oxo-1,2,5,6-tetrahydropyrido[2′,1′:2,3]imidazo[4,5-h]quinoline-3-carboxylic Acid]", "EC50": 0.002}, {"smiles": "COc1cccn2c3c(nc12)-c1[nH]c(=O)c(C(=O)O)cc1C(C(C)(C)C)C3", "note": "(single isomer, unassigned) [Example 15, 5-(tert-Butyl)-11-methoxy-2-oxo-1,2,5,6-tetrahydropyrido[2′,1′:2,3]imidazo[4,5-h]quinoline-3-carboxylic Acid]", "EC50": 1}, {"smiles": "Cn1c2c(cc(C(=O)O)c1=O)C(C(C)(C)C)Cc1c-2cc(OC(F)F)c2ncccc12", "note": "(single isomer, unassigned) [Example 40, 6-(tert-Butyl)-12-(difluoromethoxy)-10-methyl-9-oxo-5,6,9,10-tetrahydroquinolino[7,8-f]quinoline-8-carboxylic Acid]", "EC50": 0.2}, {"smiles": "CC(C)(C)C1Cc2c(nc3c(OC(F)F)cccn23)-c2[nH]c(=O)c(C(=O)O)cc21", "note": "(single isomer, unassigned) [Example 10, 5-(tert-Butyl)-11-(difluoromethoxy)-2-oxo-1,2,5,6-tetrahydropyrido[2′,1′:2,3]imidazo[4,5-h]quinoline-3-carboxylic Acid]", "EC50": 0.003}, {"smiles": "COc1ccn2c3c(nc2c1OC)-c1[nH]c(=O)c(C(=O)O)cc1C(C(C)(C)C)C3", "note": "(single isomer, unassigned) [Example 19, 5-(tert-Butyl)-10,11-dimethoxy-2-oxo-1,2,5,6-tetrahydropyrido[2′,1′:2,3]imidazo[4,5-h]quinoline-3-carboxylic Acid]", "EC50": 8}, {"smiles": "Cn1c2c(cc(C(=O)O)c1=O)C(C(C)(C)C)Cc1c-2nc(Cl)c2ccccc12", "note": "(single isomer, unassigned) [Example 44, 12-(tert-Butyl)-6-chloro-4-methyl-3-oxo-3,4,11,12-tetrahydrobenzo[c][1,10]phenanthroline-2-carboxylic Acid]", "EC50": 0.009}, {"smiles": "CC(C)(C)C1Cc2c(nc3c(OC(F)F)cccn23)-c2[nH]c(=O)c(C(=O)O)cc21", "note": "(single isomer, unassigned) [Example 11, 5-(tert-Butyl)-11-(difluoromethoxy)-2-oxo-1,2,5,6-tetrahydropyrido[2′,1′:2,3]imidazo[4,5-h]quinoline-3-carboxylic Acid]", "EC50": 27}, {"smiles": "CC(C)C1Cc2c(nc3c(OC(F)F)cccn23)-c2[nH]c(=O)c(C(=O)O)cc21", "note": "(single isomer, unassigned) [Example 12, 11-(Difluoromethoxy)-5-isopropyl-2-oxo-1,2,5,6-tetrahydropyrido[2′,1′:2,3]imidazo[4,5-h]quinoline-3-carboxylic Acid]", "EC50": 0.018}, {"smiles": "CC(C)C1Cc2cc(C(=O)O)c(=O)[nH]c2-c2nc3c(OC(F)F)cccn3c21", "note": "(single isomer, unassigned) [Example 21, 11-(Difluoromethoxy)-6-isopropyl-2-oxo-1,2,5,6-tetrahydropyrido[2′,1′:2,3]imidazo[4,5-h]quinoline-3-carboxylic Acid]", "EC50": 6}, {"smiles": "COc1cc2c(c3cccnc13)CC(C(C)(C)C)c1cc(C(=O)O)c(=O)[nH]c1-2", "note": "(single isomer, unassigned) [Example 35, 6-(tert-Butyl)-12-methoxy-9-oxo-5,6,9,10-tetrahydroquinolino[7,8-f]quinoline-8-carboxylic Acid]", "EC50": 0.027}, {"smiles": "Cn1c2c(cc(C(=O)O)c1=O)C(C(C)(C)C)Cc1c-2cc(OC(F)F)c2ncccc12", "note": "(single isomer, unassigned) [Example 39, 6-(tert-Butyl)-12-(difluoromethoxy)-10-methyl-9-oxo-5,6,9,10-tetrahydroquinolino[7,8-f]quinoline-8-carboxylic Acid]", "EC50": 10}, {"smiles": "Cn1c2c(cc(C(=O)O)c1=O)C(C(C)(C)C)Cc1c-2nc(Cl)c2ccccc12", "note": "(single isomer, unassigned) [Example 45, 12-(tert-Butyl)-6-chloro-4-methyl-3-oxo-3,4,11,12-tetrahydrobenzo[c][1,10]phenanthroline-2-carboxylic Acid]", "EC50": 1}, {"smiles": "COc1nc2c(c3ccccc13)CC(C(C)(C)C)c1cc(C(=O)O)c(=O)[nH]c1-2", "note": "(single isomer, unassigned) [Example 41, 12-(tert-Butyl)-6-methoxy-3-oxo-3,4,11,12-tetrahydrobenzo[c][1,10]phenanthroline-2-carboxylic Acid]", "EC50": 0.001}, {"smiles": "CC(C)(C)C1Cc2c(nc3c(OC(F)F)cccn23)-c2[nH]c(=O)c(C(=O)O)c(O)c21", "note": "(single isomer, unassigned) [Example 8, 5-(tert-Butyl)-11-(difluoromethoxy)-4-hydroxy-2-oxo-1,2,5,6-tetrahydropyrido[2′,1′:2,3]imidazo[4,5-h]quinoline-3-carboxylic Acid]", "EC50": 0.22}, {"smiles": "CC(C)(C)C1Cn2c(cc3c(OC(F)F)cccc32)-c2[nH]c(=O)c(C(=O)O)c(O)c21", "note": "(single isomer, unassigned) [Example 3, 5-(tert-Butyl)-11-(difluoromethoxy)-4-hydroxy-2-oxo-1,2,5,6-tetrahydroindolo[1,2-h][1,7]naphthyridine-3-carboxylic Acid]", "EC50": 0.005}, {"smiles": "COc1cccc2c1nc1n2CC(C(C)(C)C)c2cc(C(=O)O)c(=O)[nH]c2-1", "note": "(single isomer, unassigned) [Example 27, 5-(tert-Butyl)-11-methoxy-2-oxo-1,2,5,6-tetrahydrobenzo[4,5]imidazo[1,2-h][1,7]naphthyridine-3-carboxylic Acid]", "EC50": 10}, {"smiles": "CN1CCCc2c3c(cc(OC(F)F)c21)-c1[nH]c(=O)c(C(=O)O)cc1C(C(C)(C)C)C3", "note": "(single isomer, unassigned) [Example 32, 6-(tert-Butyl)-12-(difluoromethoxy)-1-methyl-9-oxo-1,2,3,4,5,6,9,10-octahydroquinolino[7,8-f]quinoline-8-carboxylic Acid]", "EC50": 0.002}, {"smiles": "COc1cccn2c3c(nc12)-c1[nH]c(=O)c(C(=O)O)cc1C(C(C)C)C3", "note": "(single isomer, unassigned) [Example 16, 5-Isopropyl-11-methoxy-2-oxo-1,2,5,6-tetrahydropyrido[2′,1′:2,3]imidazo[4,5-h]quinoline-3-carboxylic Acid]", "EC50": 0.048}]}]}
